Measured values as given in US20220042033A1, “COMPOSITION AND METHOD FOR CONFERRING AND/OR ENHANCING TOLERANCE AGAINST HERBICIDES BY USING VARIANTS OF PPO” (FarmHannong Co., Ltd., priority 2017, published 2022).

Columns and labels:
[1] = target: Auxenochlorella protothecoides ApPPO1 (protoporphyrinogen IX oxidase), wild type, SEQ ID NO: 1, fused to MBP (Auxenochlorella protothecoides, UniProt A0A087SQM0); experiment: PPO enzyme inhibition assay (IC50), MBP-fused PPO; type: biochemical; conditions: ApPPO1 WT; 50 μM protoporphyrinogen IX, pH 8.0, room temperature, 30 min
[2] = target: T1, Myxococcus xanthus MxPPO (protoporphyrinogen IX oxidase), wild type, SEQ ID NO: 3, fused to MBP (Myxococcus xanthus, UniProt P56601); experiment: PPO enzyme inhibition assay (IC50), MBP-fused PPO (Table 15); type: biochemical; conditions: protoporphyrinogen IX 50 μM, room temperature, 30 min
T1 construct: For encoding the PPO protein (MxPPO); made in house; host or cells: BL21 CodonPlus(DE3) E. coli

[3] = target: T2, Myxococcus xanthus MxPPO (SEQ ID NO: 3) variant I168C, fused to MBP (Myxococcus xanthus, UniProt P56601, I168C); experiment: as above; type: biochemical
T2 construct: For encoding the PPO protein (MxPPO); made in house; host or cells: BL21 CodonPlus(DE3) E. coli

[4] = target: T3, Myxococcus xanthus MxPPO (SEQ ID NO: 3) variant V164A, fused to MBP (Myxococcus xanthus, UniProt P56601, V164A); experiment: as above; type: biochemical
T3 construct: For encoding the PPO protein (MxPPO); made in house; host or cells: BL21 CodonPlus(DE3) E. coli

[5] = target: Auxenochlorella protothecoides ApPPO1 (SEQ ID NO: 1) variant V360M, fused to MBP (Auxenochlorella protothecoides, UniProt A0A087SQM0, V360M); experiment: PPO enzyme inhibition assay (IC50), MBP-fused PPO; type: biochemical
[6] = tested on: E. coli BT3(ΔPPO) transformed with Myxococcus xanthus MxPPO (SEQ ID NO: 3) variant A170C; experiment: Herbicide tolerance test in PPO-deficient E. coli BT3(ΔPPO), growth on plates; type: cell-based; conditions: Table 9, light, tiafenacil to 2000 μM, saflufenacil to 200 μM, flumioxazin to 100 μM
Experimental: (§1) The mutated CyPPO gene obtained from the Example 2 was transformed to BT3 (ΔPPO) strain which is deficient of PPO activity and cultured in LB media with PPO-inhibiting herbicide, thereby examining whether growth of transformed BT3 was not inhibited.
(§2) BT3 competent cells were transformed with the pET303-ApPPO1 and pET303-MxPPO plasmids and those with a mutation(s) constructed in Example 2 respectively, and were cultured in LB agar media containing carbenicillin (Gold Biotechnology, Co., Ltd.).
(§3) Single colony of E. coli transformed with each CyPPO gene was cultured in 3 ml of LB broth containing carbenicillin overnight, and then was subcultured until absorbance (OD600) reached 0.5 to 1. Then, it was diluted with LB broth to OD600=0.5. Again, the diluted solution was serially diluted 4 times by a factor of one tenth.
(§4) The LB agar media (LB 25 g/l, Bacto agar 15 g/l) containing carbenicillin (100 μg/ml) and 0 to 4,000 μM of various herbicides dissolved in DMSO was prepared. Next, 10 μl of each diluted solution was dropped on the plate and cultured at 37° C. under light (Tables 7, 9 and 10, FIGS. 2 to 6, 13 to 20) or dark (Tables 8 and 11, FIGS. 7 to 12, 21 to 24) for 16 to 20 hours. Then, the extent of tolerance was evaluated.
(§5) The extent of herbicide tolerance of the ApPPO1 or MxPPO mutated genes was evaluated by comparing that of mutated genes with that of ApPPO1 or MxPPO wild type. […]

[7] = tested on: E. coli BT3(ΔPPO) transformed with Auxenochlorella protothecoides ApPPO1 (SEQ ID NO: 1) variant Y422T (YT); experiment: as above; type: cell-based; conditions: Table 7, light, 37° C., 16 to 20 hours, vs wild type at highest herbicide concentration
Experimental: as §1, §2, §3, §4
(§6) The extent of herbicide tolerance of the ApPPO1 or MxPPO mutated genes was evaluated by comparing that of mutated genes with that of ApPPO1 or MxPPO wild type. The relative tolerance was represented with “+” as a factor of 10 times.
(§7) In Tables 7 to 11, tolerance level was presented as ‘−’ of tolerance of wild type and of variants equivalent to that of wild type, and was done as ‘+’ per each 10 fold resistance until ‘+++++’ as maximal resistance. […] A dilution series (OD600=0.5, 0.05, 0.005, 0.0005, 0.00005) was made and spotted on LB agar plates supplemented with herbicides.

[8] = tested on: E. coli BT3(ΔPPO) transformed with Myxococcus xanthus MxPPO (SEQ ID NO: 3) variant M365I; experiment: as above; type: cell-based; conditions: Table 9, light, tiafenacil to 2000 μM, saflufenacil to 200 μM, flumioxazin to 100 μM
Experimental: as §1, §2, §3, §4, §5

[9] = tested on: wild type A. thaliana (Col-0 ecotype); experiment: Herbicide spray test on 4-week-old plants, wild type; type: in vivo, Arabidopsis thaliana; conditions: 100 ml of 1 μM tiafenacil and 0.05% Silwet L-77 per 0.24 m^2; within 7 days
Experimental: In order to examine PPO-inhibiting herbicide tolerance of the transgenic plants, 4-week-old plants were evenly sprayed with herbicide (100 ml of 1 μM tiafenacil and 0.05% Silwet L-77 (v/v)) in 40×60 cm area (0.24 m^2).

[10] = target: T4, Myxococcus xanthus MxPPO (SEQ ID NO: 3) variant F329V, fused to MBP (Myxococcus xanthus, UniProt P56601, F329V); experiment: PPO enzyme inhibition assay (IC50), MBP-fused PPO (Table 15); type: biochemical
T4 construct: For encoding the PPO protein (MxPPO); made in house; host or cells: BL21 CodonPlus(DE3) E. coli
Experimental: (§8) Thus, PPO proteins of wild type and variants were expressed as fused to MBP and were used for experiments.
In order to express wild type and variant proteins of ApPPO1 and MxPPO, those genes were introduced into pMAL-c2x vector (refer to FIG. 25), respectively.
(§9) The following process for purification of PPO protein was performed in a 4° C. cold room. […] The column was washed with 3 column volumes of buffer and the presence of protein in the washing solution was examined. When the protein was no longer detected, the washing procedure was terminated. Then, the MBP-PPO protein was eluted with approximately 2 column volumes of buffer containing 20 mM maltose. The protein concentration of each eluent was determined and the elution was stopped when the protein was no longer detected. Ten microliter of each fraction was investigated for protein quantification and SDS-PAGE analysis. […]
Hundred and eighty microliters of a reaction mixture containing the purified PPO protein were placed in 96 well plates and 20 μl of purified PPO proteins were added. […] The reaction proceeded at room temperature for 30 min and the fluorescence of protoporphyrin IX was measured using Microplate reader (Sense, Hidex) (excitation: 405 nm; emission: 633 nm). […] To this, 2.7 N HCl was added, and the absorbance at 408 nm was measured. […]

[11] = tested on: E. coli BT3(ΔPPO) transformed with Auxenochlorella protothecoides ApPPO1 (SEQ ID NO: 1) variant Y422M (YM); experiment: Herbicide tolerance test in PPO-deficient E. coli BT3(ΔPPO), growth on plates; type: cell-based; conditions: Table 7, light, 37° C., 16 to 20 hours, vs wild type at highest herbicide concentration
Experimental: as §1, §2, §3, §4, §6, §7

[12] = target: T5, Myxococcus xanthus MxPPO (SEQ ID NO: 3) variant R95A, fused to MBP (Myxococcus xanthus, UniProt P56601, R95A); experiment: biochemical
T5 construct: For encoding the PPO protein (MxPPO); made in house; host or cells: BL21 CodonPlus(DE3) E. coli

[13] = tested on: E. coli BT3(ΔPPO) transformed with Myxococcus xanthus MxPPO (SEQ ID NO: 3) variant M365V; experiment: Herbicide tolerance test in PPO-deficient E. coli BT3(ΔPPO), growth on plates; type: cell-based; conditions: Table 9, light, tiafenacil to 2000 μM, saflufenacil to 200 μM, flumioxazin to 100 μM
Experimental: as §1, §2, §3, §4, §5

[14] = tested on: transgenic A. thaliana transformed with ApPPO1 variants, MxPPO or MxPPO variants; experiment: Herbicide spray test on 4-week-old plants, transgenic; type: in vivo, Arabidopsis thaliana; conditions: 100 ml of 1 μM tiafenacil and 0.05% Silwet L-77 per 0.24 m^2
From the text: A. thaliana was transformed with a binary vector having ORF of a selectable marker, Bar gene (glufosinate-tolerant gene), and ORF of each gene of ApPPO1 variants, MxPPO, and MxPPO variants. The transgenic plant was examined for cross-tolerance towards glufosinate and PPO-inhibiting herbicides. The bar gene was also used to examine whether the transgene was stably inherited during generations. NOS promoter and E9 terminator were used for bar gene expression.
In order to express proteins of ApPPO1 variants, MxPPO, and MxPPO variants in plants, a CaMV35S promoter and a NOS terminator were used. Encoding genes of ApPPO1 variants, MxPPO, and MxPPO variants were introduced into binary vector using XhoI and BamHI restriction enzymes. Furthermore, for confirmation of the protein expression, hemagglutinin (HA) tag was fused to the C-terminal region of PPO protein coding gene using BamHI and SacI restriction enzymes. […]
Each transformed Agrobacterium was screened in spectinomycin-containing LB media. […] After Agrobacterium cell was harvested from the culture media, it was resuspended in the solution containing 5% sucrose (w/v) and 0.05% Silwet L-77 (v/v) (Momentive Performance Materials Co., Ltd.) at an absorbance (OD600) of 0.8. […]

[15] = tested on: E. coli BT3(ΔPPO) transformed with Myxococcus xanthus MxPPO (SEQ ID NO: 3) variant I311M; experiment: Herbicide tolerance test in PPO-deficient E. coli BT3(ΔPPO), growth on plates; type: cell-based; conditions: Table 9, light, tiafenacil to 2000 μM, saflufenacil to 200 μM, flumioxazin to 100 μM
Experimental: as §1, §2, §3, §4, §5

[16] = target: Auxenochlorella protothecoides ApPPO1 (SEQ ID NO: 1) variant A215L, fused to MBP (Auxenochlorella protothecoides, UniProt A0A087SQM0, A215L); experiment: biochemical
Experimental: as §8, §9
Hundred and eighty microliters of a reaction mixture containing the purified PPO protein were placed in 96 well plates and 20 μl of purified PPO proteins were added. […] The reaction proceeded at room temperature for 30 min and the fluorescence of protoporphyrin IX was measured using Microplate reader (Sense, Hidex) (excitation: 405 nm; emission: 633 nm). […] To this, 2.7 N HCl was added, and the absorbance at 408 nm was measured. A standard curve was generated using standard protoporphyrin IX, and PPO activity was measured by calibration of protoporphyrin IX using the standard curve of protoporphyrin IX.

[17] = tested on: E. coli BT3(ΔPPO) transformed with Auxenochlorella protothecoides ApPPO1 (SEQ ID NO: 1) variant Y422C (YC); experiment: Herbicide tolerance test in PPO-deficient E. coli BT3(ΔPPO), growth on plates; type: cell-based; conditions: Table 7, light, 37° C., 16 to 20 hours, vs wild type at highest herbicide concentration
Experimental: as §1, §2, §3, §4, §6, §7

T2 sequence (P56601 whole entry I168C, the tested form may be a part): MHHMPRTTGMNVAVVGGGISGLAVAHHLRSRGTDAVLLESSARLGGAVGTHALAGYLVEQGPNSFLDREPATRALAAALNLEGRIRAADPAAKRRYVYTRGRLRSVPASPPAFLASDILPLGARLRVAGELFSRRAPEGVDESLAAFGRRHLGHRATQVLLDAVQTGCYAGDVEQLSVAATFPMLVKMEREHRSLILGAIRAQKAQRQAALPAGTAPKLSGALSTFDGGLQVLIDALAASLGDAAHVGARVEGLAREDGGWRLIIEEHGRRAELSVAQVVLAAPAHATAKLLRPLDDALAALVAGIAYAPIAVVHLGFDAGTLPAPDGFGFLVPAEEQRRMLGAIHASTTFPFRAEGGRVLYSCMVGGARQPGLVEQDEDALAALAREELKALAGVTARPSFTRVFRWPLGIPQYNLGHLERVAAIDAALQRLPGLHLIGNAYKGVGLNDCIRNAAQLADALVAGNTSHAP
Sequence of Auxenochlorella protothecoides ApPPO1 (protoporphyrinogen IX oxidase), wild type, SEQ ID NO: 1, fused to MBP (A0A087SQM0 51-532): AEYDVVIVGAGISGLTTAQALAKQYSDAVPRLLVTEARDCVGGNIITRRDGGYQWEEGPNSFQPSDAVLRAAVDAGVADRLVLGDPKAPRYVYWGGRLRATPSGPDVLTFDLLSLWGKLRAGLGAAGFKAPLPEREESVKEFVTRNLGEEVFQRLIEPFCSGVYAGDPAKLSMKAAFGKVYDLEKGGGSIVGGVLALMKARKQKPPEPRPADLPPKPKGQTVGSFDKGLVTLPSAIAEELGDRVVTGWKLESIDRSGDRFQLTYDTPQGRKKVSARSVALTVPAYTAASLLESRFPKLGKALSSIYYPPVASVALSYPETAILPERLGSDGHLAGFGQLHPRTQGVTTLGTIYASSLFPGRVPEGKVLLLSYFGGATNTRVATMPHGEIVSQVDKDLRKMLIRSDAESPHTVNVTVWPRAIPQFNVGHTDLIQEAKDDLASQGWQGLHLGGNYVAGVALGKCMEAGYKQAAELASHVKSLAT
Sequence of Auxenochlorella protothecoides ApPPO1 (SEQ ID NO: 1) variant V360M, fused to MBP (A0A087SQM0 entry or part of it V360M): as the sequence (A0A087SQM0 51-532) above, with V310M counted along it
T4 sequence (P56601 whole entry F329V, the tested form may be a part): as the sequence (P56601 whole entry I168C, the tested form may be a part) above, with C168I, F329V counted along it
Sequence of Auxenochlorella protothecoides ApPPO1 (SEQ ID NO: 1) variant A215L, fused to MBP (A0A087SQM0 entry or part of it A215L): as the sequence (A0A087SQM0 51-532) above, with A165L counted along it
T3 sequence (P56601 whole entry V164A, the tested form may be a part): as the sequence (P56601 whole entry I168C, the tested form may be a part) above, with V164A, C168I counted along it
T1 sequence (P56601 whole entry, the tested form may be a part): as the sequence (P56601 whole entry I168C, the tested form may be a part) above, with C168I counted along it
T5 sequence (P56601 whole entry R95A, the tested form may be a part): as the sequence (P56601 whole entry I168C, the tested form may be a part) above, with R95A, C168I counted along it

Structure (SMILES): COC(=O)CCNC(=O)C(C)Sc1cc(-n2c(=O)cc(C(F)(F)F)n(C)c2=O)c(F)cc1Cl (centres unmarked) [tiafenacil]
- IC50 [1]: 21 nM
- IC50 [2]: 0.242 µM
- IC50 [3]: 550 nM
- IC50 [4]: 367 nM
- IC50 [5]: 75 nM
- relative herbicide tolerance level [6]: + (1-9 fold higher tolerance)
- relative herbicide tolerance level [7]: ++ (10-99 fold higher tolerance)
- relative herbicide tolerance level [8]: + (1-9 fold higher tolerance)
- plant damage after spraying [9]: completely died within 7 days after treatment
- IC50 [10]: 239 nM
- relative herbicide tolerance level [11]: +++ (100-999 fold higher tolerance)
- IC50 [12]: 2370 nM
- relative herbicide tolerance level [13]: + (1-9 fold higher tolerance)
- plant damage after spraying [14]: no damage
- relative herbicide tolerance level [15]: ++ (10-99 fold higher tolerance)
- IC50 [16]: 3460 nM
- relative herbicide tolerance level [17]: ++ (10-99 fold higher tolerance)
